The text below walks through data of patent publication US9776995B2, “Bicyclic sulfonamide compounds as sodium channel inhibitors” (AMGEN INC., priority 2013, dated 2017).

For orientation: IC50 means the midpoint of a concentration-inhibition curve. Lower therefore signals greater potency.

The structures appear in SMILES notation.

One assay deals with Nav 1.7 (Homo sapiens (Human), UniProt Q15858). The assay can be described thus: Nav 1.7 in vitro PX assay (PatchXpress whole cell voltage clamp).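 Further: holding potential set for 20 to 50% inactivation, sodium current evoked by a 20 ms step to −10 mV, peak current inhibition read after compound exposure, 3–5 cells per concentration.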 The class given is cell-based.
Nav 1.7, sequence (Q15858 whole entry): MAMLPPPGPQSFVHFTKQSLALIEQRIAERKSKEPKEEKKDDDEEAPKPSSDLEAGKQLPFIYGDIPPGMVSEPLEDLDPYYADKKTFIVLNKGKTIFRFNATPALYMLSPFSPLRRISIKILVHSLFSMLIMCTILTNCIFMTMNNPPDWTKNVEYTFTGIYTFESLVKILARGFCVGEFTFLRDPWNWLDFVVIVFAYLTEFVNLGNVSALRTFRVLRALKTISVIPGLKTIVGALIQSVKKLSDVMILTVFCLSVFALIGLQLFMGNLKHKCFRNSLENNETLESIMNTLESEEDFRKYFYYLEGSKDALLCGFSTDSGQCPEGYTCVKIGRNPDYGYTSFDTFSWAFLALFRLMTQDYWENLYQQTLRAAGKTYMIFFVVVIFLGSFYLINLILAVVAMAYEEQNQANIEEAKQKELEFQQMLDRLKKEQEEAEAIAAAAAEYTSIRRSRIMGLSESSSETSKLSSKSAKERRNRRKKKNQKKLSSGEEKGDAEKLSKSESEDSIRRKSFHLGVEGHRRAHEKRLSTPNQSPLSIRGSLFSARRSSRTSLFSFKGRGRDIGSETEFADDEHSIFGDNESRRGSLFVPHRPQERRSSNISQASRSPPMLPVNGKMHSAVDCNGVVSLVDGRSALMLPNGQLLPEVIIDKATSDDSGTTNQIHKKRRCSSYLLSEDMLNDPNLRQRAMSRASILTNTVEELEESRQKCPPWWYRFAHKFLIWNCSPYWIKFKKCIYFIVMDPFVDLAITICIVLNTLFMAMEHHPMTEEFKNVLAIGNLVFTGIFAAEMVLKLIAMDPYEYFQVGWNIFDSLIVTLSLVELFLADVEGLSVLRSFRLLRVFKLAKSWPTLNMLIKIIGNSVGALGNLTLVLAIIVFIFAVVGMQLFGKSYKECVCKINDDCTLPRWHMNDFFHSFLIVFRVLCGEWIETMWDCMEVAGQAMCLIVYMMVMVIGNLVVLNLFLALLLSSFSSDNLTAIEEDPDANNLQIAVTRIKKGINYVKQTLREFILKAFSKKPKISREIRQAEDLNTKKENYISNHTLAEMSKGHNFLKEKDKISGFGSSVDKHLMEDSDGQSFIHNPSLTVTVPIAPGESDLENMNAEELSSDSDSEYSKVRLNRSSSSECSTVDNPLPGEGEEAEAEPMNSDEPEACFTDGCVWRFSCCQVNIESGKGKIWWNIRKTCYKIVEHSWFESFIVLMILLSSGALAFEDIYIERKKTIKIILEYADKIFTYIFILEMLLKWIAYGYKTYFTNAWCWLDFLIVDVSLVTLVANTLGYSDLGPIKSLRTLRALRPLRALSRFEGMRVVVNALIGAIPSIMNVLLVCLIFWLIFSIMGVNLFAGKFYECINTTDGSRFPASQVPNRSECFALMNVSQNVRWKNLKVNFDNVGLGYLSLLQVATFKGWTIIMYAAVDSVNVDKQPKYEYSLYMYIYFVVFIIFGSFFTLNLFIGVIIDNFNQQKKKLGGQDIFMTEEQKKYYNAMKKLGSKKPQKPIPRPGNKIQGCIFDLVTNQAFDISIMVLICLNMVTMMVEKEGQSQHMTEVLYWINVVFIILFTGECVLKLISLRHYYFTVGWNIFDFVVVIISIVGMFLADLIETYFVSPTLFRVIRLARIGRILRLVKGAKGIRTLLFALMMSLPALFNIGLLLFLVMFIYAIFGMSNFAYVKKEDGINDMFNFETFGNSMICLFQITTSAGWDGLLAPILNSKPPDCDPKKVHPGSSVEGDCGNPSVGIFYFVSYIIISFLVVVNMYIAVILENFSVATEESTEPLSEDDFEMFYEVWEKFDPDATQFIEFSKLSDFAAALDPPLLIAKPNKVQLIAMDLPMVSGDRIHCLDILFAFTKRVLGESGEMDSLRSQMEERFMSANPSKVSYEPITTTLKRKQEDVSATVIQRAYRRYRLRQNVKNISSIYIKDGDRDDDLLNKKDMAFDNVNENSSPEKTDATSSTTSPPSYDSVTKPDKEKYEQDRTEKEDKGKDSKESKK
Details: not given
As to `COc1cc(-c2cccc(C(F)(F)F)c2)c(C#N)cc1-c1nccc2cc(S(=O)(=O)Nc3ncccn3)ccc12` [Example 373, 1-(2-cyano-5-methoxy-3′-(trifluoromethyl)-[1,1′-biphenyl]-4-yl)-N-(pyrimidin-2-yl)isoquinoline-6-sulfonamide], 57 nM corresponded to half-maximal inhibition (IC50).

Compound `COc1cc(-c2cccc(F)c2)c(Cl)cc1-c1ncnc2cc(S(=O)(=O)Nc3cscn3)ccc12` [Example 378, 4-(2-chloro-3′-fluoro-5-methoxy-[1,1′-biphenyl]-4-yl)-N-(thiazol-4-yl)quinazoline-7-sulfonamide 2,2,2-trifluoroacetate] came in with an IC50 of 231 nM.

The same assay, now with this note: HEK 293 cells stably transfected with human Nav1.7; PatchXpress; partially inactivated state.
In the case of `COc1cc(-c2cccc(F)c2)c(Cl)cc1-c1ncnc2cc(S(=O)(=O)Nc3ccsn3)ccc12` [Example 361, 4-(2-chloro-3′-fluoro-5-methoxy-[1,1′-biphenyl]-4-yl)-N-(isothiazol-3-yl)quinazoline-7-sulfonamide], the IC50 was 369 nM.

`COc1cc(-c2cc(F)cc(C(F)F)c2)c(F)cc1-c1nccc2cc(S(=O)(=O)Nc3ccon3)ccc12` [Example 362, 1-(3′-(difluoromethyl)-2,5′-difluoro-5-methoxy-[1,1′-biphenyl]-4-yl)-N-(isoxazol-3-yl)isoquinoline-6-sulfonamide] gave an IC50 of 52 nM.

Consider `COc1cc(-c2cccc(C(F)(F)F)c2)c(C#N)cc1-c1nccc2cc(S(=O)(=O)Nc3ncc(F)cn3)ccc12` [Example 374, 1-(2-Cyano-5-methoxy-3′-(trifluoromethyl)-[1,1′-biphenyl]-4-yl)-N-(5-fluoropyrimidin-2-yl)isoquinoline-6-sulfonamide], for which the concentration for half-maximal inhibition (IC50) came out at 94 nM.

The compound `COc1cc(-c2cccc(Cl)c2)c(F)cc1-c1ncnc2cc(S(=O)(=O)Nc3ncon3)ccc12` [Example 376, 4-(3′-chloro-2-fluoro-5-methoxy-[1,1′-biphenyl]-4-yl)-N-(1,2,4-oxadiazol-3-yl)quinazoline-7-sulfonamide] displayed an IC50 of 28 nM.

The compound `COc1cc(-c2cccc(Cl)c2)c(F)cc1-c1ncnc2cc(S(=O)(=O)Nc3ccsn3)ccc12` [Example 377, 4-(3′-Chloro-2-fluoro-5-methoxy-4-biphenylyl)-N-3-isothiazolyl-7-quinazolinesulfonamide] registered an IC50 of 90 nM.

Regarding `COc1cc(-c2ccc(Cl)c(C)c2)c(Cl)cc1-c1nccc2cc(S(=O)(=O)Nc3nncs3)ccc12` [Example 379, 1-(2,4′-dichloro-5-methoxy-3′-methyl-4-biphenylyl)-N-1,3,4-thiadiazol-2-yl-6-isoquinolinesulfonamide], the IC50 worked out at 14 nM.

With `COc1cc(F)c(-c2cncc(F)c2)cc1-c1nccc2cc(S(=O)(=O)Nc3ccon3)ccc12` [Example 392, 1-(4-fluoro-5-(5-fluoropyridin-3-yl)-2-methoxyphenyl)-N-(isoxazol-3-yl)isoquinoline-6-sulfonamide 2,2,2-trifluoroacetate], half-maximal inhibition (IC50) required 491 nM.

The compound `COc1cc(-c2cccc(F)c2)c(F)cc1-c1nc(Cl)cc2cc(S(=O)(=O)Nc3ccon3)ccc12` [Example 393, 3-CHLORO-1-(2,3′-DIFLUORO-5-METHOXY-4-BIPHENYLYL)-N-3-ISOXAZOLYL-6-ISOQUINOLINESULFONAMIDE] yielded an IC50 of 157 nM.

In the case of `COc1cc(-c2cccc(F)c2)c(Cl)cc1-c1[nH]c(=O)cc2cc(S(=O)(=O)Nc3ccon3)ccc12` [Example 394, 1-(2-chloro-3′-fluoro-5-methoxy-[1,1′-biphenyl]-4-yl)-N-(isoxazol-3-yl)-3-oxo-2,3-dihydroisoquinoline-6-sulfonamide 2,2,2-trifluoroacetate], the IC50 worked out at 41 nM.

`COc1cc(-c2cccc(F)c2)c(Cl)cc1-c1c(=O)[nH]cc2cc(S(=O)(=O)Nc3ccon3)ccc12` [Example 398, 4-(2-CHLORO-3′-FLUORO-5-METHOXY-[1,1′-BIPHENYL]-4-YL)-N-(ISOXAZOL-3-YL)-3-OXO-2,3-DIHYDROISOQUINOLINE-7-SULFONAMIDE] had an IC50 of 27 nM.

`COc1cc(F)c(-c2ccccn2)cc1-c1nccc2cc(S(=O)(=O)Nc3ccon3)ccc12` [Example 399]: the IC50 worked out at 28400 nM.

Regarding `COc1cc(-c2cccc(F)c2)c(Cl)cc1-c1c(OC)ncc2cc(S(=O)(=O)Nc3ccon3)ccc12` [Example 401, 4-(2-CHLORO-3′-FLUORO-5-METHOXY-[1,1′-BIPHENYL]-4-YL)-N-(ISOXAZOL-3-YL)-3-METHOXYISOQUINOLINE-7-SULFONAMIDE], the IC50 is 613 nM.

Turning to `COc1cc(-c2cccc(F)c2)c(Cl)cc1-c1c(=O)n(C)cc2cc(S(=O)(=O)Nc3ccon3)ccc12` [Example 402, 4-(2-CHLORO-3′-FLUORO-5-METHOXY-[1,1′-BIPHENYL]-4-YL)-N-(ISOXAZOL-3-YL)-2-METHYL-3-OXO-2,3-DIHYDROISOQUINOLINE-7-SULFONAMIDE], the IC50 is 39 nM.

With `COc1cc(-c2cc(F)cc(F)c2)c(Cl)cc1-c1ncnc2cc(S(=O)(=O)Nc3ncccn3)ccc12` [Example 435, 4-(2-CHLORO-3′,5′-DIFLUORO-5-METHOXY-[1,1′-BIPHENYL]-4-YL)-N-(PYRIMIDIN-2-YL)QUINAZOLINE-7-SULFONAMIDE], the IC50 was 86 nM.

For the compound `COc1cc(-c2cccc(Cl)c2)c(Cl)cc1-c1ncnc2cc(S(=O)(=O)Nc3ncccn3)ccc12` [Example 437, 4-(2,3′-DICHLORO-5-METHOXY-[1,1′-BIPHENYL]-4-YL)-N-(PYRIMIDIN-2-YL)QUINAZOLINE-7-SULFONAMIDE], the half-inhibitory concentration (IC50) turned out to be 72 nM.

`COc1cc(-c2cc(F)cc(F)c2)c(C)cc1-c1ncnc2cc(S(=O)(=O)Nc3ncccn3)ccc12` [Example 438, 4-(3′,5′-DIFLUORO-5-METHOXY-2-METHYL-[1,1′-BIPHENYL]-4-YL)-N-(PYRIMIDIN-2-YL)QUINAZOLINE-7-SULFONAMIDE] gave an IC50 of 94 nM.

The compound `COc1cc(-c2cccc(Cl)c2)c(C)cc1-c1ncnc2cc(S(=O)(=O)Nc3ncccn3)ccc12` [Example 440, 4-(3′-CHLORO-5-METHOXY-2-METHYL-[1,1′-BIPHENYL]-4-YL)-N-(PYRIMIDIN-2-YL)QUINAZOLINE-7-SULFONAMIDE] gave an IC50 of 65 nM.

Regarding `COc1cc(-c2cccc(F)c2)c(Cl)cc1-c1c(OC)nnc2cc(S(=O)(=O)Nc3ccon3)ccc12` [Example 445, 4-(2-CHLORO-3′-FLUORO-5-METHOXY-[1,1′-BIPHENYL]-4-YL)-N-(ISOXAZOL-3-YL)-3-METHOXYCINNOLINE-7-SULFONAMIDE], half-maximal inhibition (IC50) required 107 nM.

`COc1cc(-c2cccc(F)c2)c(Cl)cc1-c1c(N)nnc2cc(S(=O)(=O)Nc3ccon3)ccc12` [Example 446, 3-AMINO-4-(2-CHLORO-3′-FLUORO-5-METHOXY-[1,1′-BIPHENYL]-4-YL)-N-(ISOXAZOL-3-YL)CINNOLINE-7-SULFONAMIDE] had an IC50 of 28 nM.

Compound `COc1cc(-c2cc(F)cc(Cl)c2)c(F)cc1-c1c[nH]c(=O)c2cc(S(=O)(=O)Nc3ccon3)ccc12` [Example 451, 4-(3′-CHLORO-2,5′-DIFLUORO-5-METHOXY-[1,1′-BIPHENYL]-4-YL)-N-(ISOXAZOL-3-YL)-1-OXO-1,2-DIHYDROISOQUINOLINE-7-SULFONAMIDE] showed an IC50 of 77 nM.

In the case of `COc1cc(-c2ccc(Cl)c(C)c2)c(F)cc1-c1c[nH]c(=O)c2cc(S(=O)(=O)Nc3ccon3)ccc12` [Example 452, 4-(4′-CHLORO-2-FLUORO-5-METHOXY-3′-METHYL-[1,1′-BIPHENYL]-4-YL)-N-(ISOXAZOL-3-YL)-1-OXO-1,2-DIHYDROISOQUINOLINE-7-SULFONAMIDE], the IC50 was 184 nM.
